# Legend:
# P. aeruginosa (PAO1) = assay: Biofilm growth on filtration membranes in bench scale nanofiltration system, 4-hour operation (CLSM); format: cell-based, Pseudomonas aeruginosa
# Experimental: Polymeric Component: A polymer blend for electrospinning was prepared comprising 3 wt. % PEG (8,000 MW, Sigma Aldrich) and 8.9 wt. % PCL (80,000 MW, Sigma Aldrich) in chloroform. The PEG/PCL polymer blend was stirred with a Teflon coated stir bar at 80° C. until no visible polymer weas present.
# Anti-Quorum Sensing Molecules: The polymeric component comprising the polymer blend was seeded with Urolithin A at a concentration of 200 μg/mL during mixing. Fiber mats comprising Urolithin A were stored at 4-8° C. for preservation prior to application.
# Electrospinning: The polymeric component comprising the polymer blend was pumped continuously by a syringe pump at a fixed rate of 0.250 mL/hour to a vertical Spraybase electrospinner equipped with a 22-guage needle at a voltage of 6.6 kV and grounded equidistant copper-plated parallel electrodes for uniaxially aligned deposition (parallel gap electrospinning). A separation distance of 4 cm between the needle and grounded electrodes were maintained for 20 minutes while the fiber mat was fabricated. Fiber mats were rotated at 10 minutes to achieve a crosshatch filter pattern. Fibers were then placed onto MCE membranes and investigated for their controlled release of the anti-QS molecules. […]
# biofilm [1] = assay: Biofilm growth on membranes with Urolithin A fibers at 50, 100, 200 μg/mL (CLSM); format: cell-based; settings: PCL/PEG fibers with Urolithin A 50, 100, 200 μg/mL; FIG. 6A-6D
# Experimental: (§1) Bench Scale Nanofiltration System: A bench scale nanofiltration system for monitoring water output efficiencies and biofilm formation on MCE membranes was used as illustrated in FIG. 2.
# In this example, biofouling on filtration membranes was investigated by comparing membranes comprising a filter coating associated with one or more anti-QS Urolithin A molecules having concentrations of 50 μg/mL, 100 μg/mL, and 200 μg/mL.
# FIG. 6A is a confocal microscopy (CLSM) image showing the biofilm growth on an unmodified control membrane. FIG. 6B is a confocal microscopy (CLSM) image showing the biofilm growth on a membrane comprising electrospun PCL/PEG fibers associated with one or more anti-QS Urolithin A molecules (50 μg/mL). FIG. 6C is a confocal microscopy (CLSM) image showing the biofilm growth on a membrane comprising electrospun PCL/PEG fibers associated with one or more anti-QS Urolithin A molecules (100 μg/mL). FIG. 6D is a confocal microscopy (CLSM) image showing the biofilm growth on a membrane comprising electrospun PCL/PEG fibers associated with one or more anti-QS Urolithin A molecules (200 μg/mL).
# [2] = Membrane performance (water quantity output) in bench scale nanofiltration system; settings: electrospun 3:1 PCL:PEG fibers with Urolithin A 200 μg/mL; 4-hour operation
# Description: as §1
# In this example, biofouling on filtration membranes was investigated by examining anti-quorum sensing molecules in P. aeruginosa (PAO1). More specifically, a membrane comprising an unmodified membrane (referred to “MCE Control”); a membrane (referred to as “Control Fibers”) comprising a filter coating, which was deposited by electrospinning fibers comprising a polymer blend (3:1 polycaprolactone (PCL) to polyethylene glycol (PEG)); and a membrane (referred to as “Anti-QS Fibers” comprising a filter coating, which was deposited by electrospinning fibers comprising a polymer blend (3:1 polycaprolactone (PCL) to polyethylene glycol (PEG)) associated with one or more anti-QS molecules (200 μg/mL). Biofilm growth over a 4-hour operation was investigated and compared for the MCE Control, Control Fibers, and Anti-QS Fibers.
# biofilm [3] = assay: Biofilm biovolume after 4-hour filtration test, furanone C-30 fibers vs control fibers (SEM); format: cell-based; settings: furanone C-30 control-released from 3:1 PCL/PEG fibers on MCE filter
# Description: as §1
# In this example, a membrane comprising a filter coating, which was deposited by electrospinning fibers comprising a polymer blend (3:1 polycaprolactone (PCL) to polyethylene glycol (PEG)) associated with one or more anti-QS molecules furanone C-30 was compared to a control membrane comprising a filter coating, which was deposited by electrospinning fibers comprising a polymer blend (3:1 polycaprolactone (PCL) to polyethylene glycol (PEG).
# FIG. 8A is a scanning electron micrograph image showing the biofilm biovolume after a 4-hour filtration test of a MCE filter comprising electrospun PCL/PEG fibers. FIG. 8B is a scanning electron micrograph image showing the biofilm biovolume after a 4-hour filtration test of a MCE filter comprising electrospun PCL/PEG fibers associated with one or more anti-QS furanone C-30 molecules.
Structure (SMILES),reduction of biofilm formation during filtration compared to the MCE Control (P. aeruginosa (PAO1); electrospun 3:1 PCL:PEG coating with Urolithin A 200 μg/mL),increase of biovolume reduction by controlled release of anti QS molecules (P. aeruginosa (PAO1); electrospun 3:1 PCL:PEG fibers with Urolithin A 200 μg/mL),biofilm biovolume vs concentration of Urolithin A in fibers (biofilm [1]),increase of flux [2],reduction in biovolume relative to the control membrane (PCL/PEG fibers) (biofilm [3])
O=c1oc2cc(O)ccc2c2ccc(O)cc12 [Urolithin A],83.48%,26.05%,biofilm biovolume reduction corresponding to the increased concentrations,52.78%,
O=C1C=C(Br)/C(=C/Br)O1 [furanone C-30],,,,,57.5%

# — patent US20250092269A1, “ANTI-BIOFOULING COMPOSITION” (Montana Technological University, priority 2023, published 2025)
